This is an account of results in patent publication US7989618B2, “Linezolid crystalline hydrate form and linezolid salts” (DiPharma Francis s.r.l., priority 2007, dated 2011).

For series [1] the following is noted: as stated in US 2006/0142283 / WO 2005/035530; cited from earlier work.
The nature of series [2]: hygroscopicity of the isolated solid. The series is classed as physicochemical. Conditions: amorphous solid.
Series [3] is described as follows: electrostatic character of the crystals. The series is classed as physicochemical. Conditions: contrary to the known crystalline Form II.

For the molecule `CC(=O)NC[C@H]1CN(c2ccc(N3CCOCC3)c(F)c2)C(=O)O1` [Form III, Linezolid Form III], the “electrostatic character and compactness compared with Form II (in words)” value in series [1] was “more compact and less electrostatic than the Form II”.

With Linezolid Sulfate, the “hygroscopicity (in words)” value in series [2] is on record as “hygroscopic”.

Take `CC(=O)NC[C@H]1CN(c2ccc(N3CCOCC3)c(F)c2)C(=O)O1` [linezolid hemihydrate, Linezolid Hemihydrate]: the “electrostatic character (in words)” value in series [3] was “not electrostatic”.
